Reference: patent US10329302B2, “Bicyclic-fused heteroaryl or aryl compounds” (Pfizer Inc., priority 2014, dated 2019)

Legend:
[1] = biological target: human IRAK4 FL (Full Length) (Homo sapiens (Human), UniProt Q9NWZ3); assay: IRAK4 Enzymatic DELFIA Assay, Protocol A; format: biochemical; conditions: human IRAK4 FL, 0.6 mM ATP (KM); read-out: IRAK4 DELFIA Protocol A IC50
[2] = system: R848-induced TNFα production by human peripheral blood mononuclear cells (PBMCs); assay: R848 Induced TNFα in Human PBMC Assay; format: cell-based; conditions: Homo sapiens, PBMC, 3 h, read-out: R848-induced TNFa PBMC IC50 (nM)
Excerpt: R848 Induced TNFα in Human PBMC Assay.
This protocol is for R848-induced TNFα production by human peripheral blood mononuclear cells (PBMCs). […] The assay is used to assess cell-based potency of small molecule inhibitors of IRAK4 in the absence of serum.
The PBMCs in the interphase layer were collected and washed with PBS via centrifugation multiple times until the supernatant is clear. The purified PBMCs were re-suspended in RPMI (Roswell Park Memorial Institute) media (Sigma-Aldrich).
For the assay, a compound dilution plate containing a top concentration of 4 mM compound in DMSO was serially diluted 4-fold for 11 times. 250 nL of the compound dilution plate was spotted into a 384-well, flat bottom with lid, TC-treated, black with clear bottom, sterile, polystyrene plate (Corning Life Sciences).
10 μL of anti-TNFα antibody labeled with MSD SULFO-TAG at 50 μg/mL was added to each well and allowed to incubate overnight at 4° C.

human IRAK4 FL (Full Length), sequence (Q9NWZ3 whole entry): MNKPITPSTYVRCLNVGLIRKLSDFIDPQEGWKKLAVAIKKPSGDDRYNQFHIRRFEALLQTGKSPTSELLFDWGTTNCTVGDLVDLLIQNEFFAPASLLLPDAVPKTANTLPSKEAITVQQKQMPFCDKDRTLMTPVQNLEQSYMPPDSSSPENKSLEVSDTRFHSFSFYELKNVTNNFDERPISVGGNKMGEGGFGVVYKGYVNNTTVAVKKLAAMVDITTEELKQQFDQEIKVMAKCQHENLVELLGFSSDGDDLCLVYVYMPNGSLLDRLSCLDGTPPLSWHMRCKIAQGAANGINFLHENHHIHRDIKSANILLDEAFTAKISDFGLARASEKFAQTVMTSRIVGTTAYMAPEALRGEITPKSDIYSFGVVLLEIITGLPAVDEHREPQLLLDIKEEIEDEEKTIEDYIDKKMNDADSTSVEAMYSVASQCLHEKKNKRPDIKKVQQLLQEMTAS

Structure (SMILES)	IC50 [1] [nM]	IC50 [2] [nM]
CC[C@@H]1[C@H](F)C(=O)N[C@@H]1COc1ncnc2cc(C(N)=O)c(OC)cc12 [Example 341, 4-{[(2S,3S,4S)-3-ethyl-4-fluoro-5-oxopyrrolidin-2-yl]methoxy}-6-methoxyquinazoline-7-carboxamide]	0.3	16
COc1cc2c(OC[C@H]3NC(=O)[C@H]4[C@@H]3C4(C)C)nccc2cc1C(N)=O [Example 263, 1-{[(1R,2S,5S)-6,6-dimethyl-4-oxo-3-azabicyclo[3.1.0]hex-2-yl]methoxy}-7-methoxyisoquinoline-6-carboxamide]	80	496
CC(C)Oc1cc2c(OC[C@H]3NC(=O)C(F)(F)[C@H]3C)nccc2cc1C(N)=O [Example 183, 1-{[(2S,3S)-4,4-difluoro-3-methyl-5-oxopyrrolidin-2-yl]methoxy}-7-(propan-2-yloxy)isoquinoline-6-carboxamide]	0.2	10
COc1cc2c(OC[C@H]3NC(=O)[C@@H]4[C@@H](F)[C@@H]43)nccc2cc1C(N)=O [Example 315, 1-{[(1S,2S,5R)-6-fluoro-4-oxo-3-azabicyclo[3.1.0]hex-2-yl]methoxy}-7-methoxyisoquinoline-6-carboxamide]	1.5	45
COc1cc2c(OC[C@H]3NC(=O)C(F)[C@H]3C)ccc(F)c2cc1C(N)=O (stereo in doubt) [Example 220, 8-fluoro-5-{[(2S,3S,4S)-4-fluoro-3-methyl-5-oxopyrrolidin-2-yl]methoxy}-3-methoxynaphthalene-2-carboxamide]	0.9	14
C=C[C@H]1CC(=O)N[C@@H]1COc1nccc2cc(C(N)=O)c(OC)cc12 [Example 329, 1-{[(2S,3R)-3-ethenyl-5-oxopyrrolidin-2-yl]methoxy}-7-methoxyisoquinoline-6-carboxamide]	13	252
COc1cc2c(OC[C@H]3NC(=O)[C@H]4[C@@H]3C4(Cl)Cl)nccc2cc1C(N)=O [Example 311, 1-{[(1S,2S,5R)-6,6-dichloro-4-oxo-3-azabicyclo[3.1.0]hex-2-yl]methoxy}-7-methoxyisoquinoline-6-carboxamide]	229	1080
COc1cc2c(OC[C@@H]3CC(F)(F)C(=O)N3)nccc2cc1C(N)=O [Example 146, 1-{[(2S)-4,4-difluoro-5-oxopyrrolidin-2-yl]methoxy}-7-methoxyisoquinoline-6-carboxamide]	0.2	15
COc1cc2c(OC[C@H]3CNC(=O)O3)nccc2cc1C(N)=O [Example 235, 7-methoxy-1-{[(5R)-2-oxo-1,3-oxazolidin-5-yl]methoxy}isoquinoline-6-carboxamide]	97	1090
COc1cc2c(OC[C@@H]3C[C@@H](CC(F)(F)F)C(=O)N3)nccc2cc1C(N)=O [Example 267, 7-methoxy-1-{[(2S,4S)-5-oxo-4-(2,2,2-trifluoroethyl)pyrrolidin-2-yl]methoxy}isoquinoline-6-carboxamide]	15	158
COc1cc2c(OC[C@H]3NC(=O)[C@@H]4[C@@H](CF)[C@@H]43)ccnc2cc1C(N)=O [Example 333, 4-{[(1R,2S,5S)-6-(fluoromethyl)-4-oxo-3-azabicyclo[3.1.0]hex-2-yl]methoxy}-6-methoxyquinoline-7-carboxamide]	0.3	182
COc1cc2c(OC[C@H]3NC(=O)[C@]4(F)CC[C@H]34)nccc2cc1C(N)=O [Example 322, 1-{[(1R,2S,5S)-5-fluoro-4-oxo-3-azabicyclo[3.2.0]hept-2-yl]methoxy}-7-methoxyisoquinoline-6-carboxamide]	6.1	26
CC(C)Oc1cc2c(OC[C@@H]3C[C@@H](C)C(=O)N3)nccc2cc1C(N)=O [Example 124, 1-{[(2S,4R)-4-methyl-5-oxopyrrolidin-2-yl]methoxy}-7-(propan-2-yloxy)isoquinoline-6-carboxamide]	7.8	175
